Reference: patent US6203822A, “Gallium-containing compounds for the treatment of infections caused by intracellular pathogens and pathogens causing chronic pulmonary infection” (priority 1996, dated 2001)

Tests used:
M. tuberculosis = assay: Regrowth of M. tuberculosis in BACTEC system after gallium nitrate treatment (kill versus stasis); format: cell-based
Procedure: (§1) Example 4 and Example 5 detail exemplary methods used to determine whether the mycobacteria strains were killed by the addition of gallium nitrate. […] The bacteria were resuspended in 7H9 broth (BBL Microbiology Systems) or onto agar plates without gallium nitrate and incubated under conditions known to promote bacterial growth. In Example 4, the growth index for these cultures was assessed after 6 weeks to determine whether bacteria are inhibited or killed. […] In Example 5, M. tuberculosis-infected macrophages cell lysates were plated onto the surface of media able to support M. tuberculosis growth. Colony forming unit assays were counted to assess bacterial death or inhibition.
In Examples 2 and 3, gallium nitrate inhibited growth of M. tuberculosis. To determine whether the mycobacteria strains were killed by gallium nitrate or whether various concentrations of gallium nitrate were bacteriostatic, samples from the assay were tested in the BACTEC system. […] The bacteria, if present, was resuspended in 7H9 broth without gallium nitrate and incubated in the BACTEC system under conditions known in the art to promote bacterial growth.

[1] = system: macrophage monolayers (MDMs); assay: Gallium toxicity in uninfected MDM monolayers; format: cell-based, human; details: naphthol blue stained nuclei count, read-out: gallium concentration up to which no immediate difference in monolayer density
Procedure: To test the potential toxicity of gallium nitrate on the standard macrophage monolayers (MDMs) used in the assays described in this invention, uninfected MDM monolayers were incubated with various concentrations of gallium nitrate in the range used in the studies described in Examples 2 and 3.
There was no immediate difference in monolayer density between MDM monolayers with and without gallium nitrate treatment up to a gallium concentration of 2 mM. Results were based on counting napthol blue macrophage stained nuclei from the monolayer. These numbers directly correlate with the number of cells present. In most cases the integrity of the MDM monolayer in the presence of gallium was maintained for up to 37 days, equivalent to untreated, uninfected control cultures.

[2] = system: M. tuberculosis in human macrophages; assay: Colony-forming unit assay to assess pathogen death; format: cell-based
Procedure: as §1
The growth index assay cannot always clearly distinguish between bacterial survival (without multiplication) and bacterial death. Therefore, colony forming unit assays were also used to assess the bactericidal activity of gallium-containing compounds in these experiments. Lysed monolayers were plated in Middlebrook 7H11 plates and colonies forming on the plates were counted after 14 days. […] In fact, this experiment provided the most graphic illustration of the influence of gallium nitrate on bacterial killing. That is, control-infected monolayers were lysed as a result of bacterial multiplication so that macrophages could no longer be visualized by microscopy. […] Importantly, the results in the colony-forming unit assay resemble the results obtained with the radiometric BACTEC assay.

[3] = system: M. tuberculosis strain Erdman in human macrophages; assay: Growth inhibition of M. tuberculosis Erdman in human monocyte derived macrophages (MDM); format: cell-based
Procedure: Monocyte derived macrophages (MDM) containing strain H37Ra were incubated for 24 h (FIG. 2A), 48 h (FIG. 2B) or 72 h (FIG. 2C) and macrophages containing the virulent strain Erdman were incubated for 24 h (FIG. 2D) or 48 h (FIG. 2E) in gallium nitrate.
The gallium-containing compounds can also be tested for their ability to inhibit intracellular pathogens in tissue culture assays. In general, in these assays, the macrophages are placed in culture and incubated with the intracellular pathogen at an approximate cell to pathogen ratio of preferably at least 1:1 to about 1:5 cells:pathogen. Exemplary culture conditions are provided in the assays detailed in the Examples. For assays assessing M. tuberculosis infection, freshly adherent monocytes, 12 day-old adherent MDMs, or freshly adherent alveolar macrophages are incubated with M. tuberculosis, MAI or other intracellular bacteria at a ratio of about 1:1 to about 1:5 (phagocyte:bacterium). For M. tuberculosis or MAI, the bacteria are incubated with the phagocyte for 2 hr at 37° C. in RPMI/HEPES media with 2.5% serum or human serum albumin (serum-free). The cells are washed to remove non-adherent bacteria and monolayers are replated with RPMI containing 1% autologous serum (to maintain phagocyte viability but not to sustain extracellular growth of bacteria). Gallium-containing compounds, such as gallium nitrate, with, or without, other agents such as antibiotics, cytokines etc., are added about 24 hr. later and mycobacterial growth in cell lysates is then assessed over the next several days either by the radiometric BACTEC system or by colony-forming units on agarose plates. In each experiment, growth is assessed relative to control monolayers where no drug has been added.
Mononuclear phagocytes from healthy adult volunteers who were tuberculin skin test negative and had no history of mycobacterial infection were isolated and cultured in Teflon wells according to the methods of Schlesinger, et al. (J. Immunol. 150:2920-2930, 1993). […]

[4] = system: M. avium-intracellulare complex (MAI), patient isolate; assay: Growth inhibition of MAI (patient isolate) in human alveolar macrophages; format: cell-based; details: 500 μM, 24 hr and 48 hr
Procedure: M. avium-intracellulare complex (MAI) was obtained from the ATCC (#25291) and from a patient isolate from the State Hygienic laboratory at the University of Iowa Hospital and Clinics. Human alveolar macrophages were obtained from broncholavage of healthy patients and placed in monolayer culture. The bacteria were added to the cells in a bacteria to macrophage ratio of about 1:1. Growth index readings were obtained at 24 hr and 48 hr after gallium nitrate administration (500 μM) as described in Example 3 and used by Cavalieri, et al. (Antimicrob. Agents and Chemo. 39:1542-1545,1995).

Which “killing of bacteria (growth index after 6 weeks)” value (M. tuberculosis; growth index assessed after 6 weeks) does the source give for `O=[N+]([O-])[O-].O=[N+]([O-])[O-].O=[N+]([O-])[O-].[Ga+3]` [gallium nitrate] here?
Its value is “the bacteria were killed”.

What about the “bacterial regrowth after gallium nitrate treatment” value (M. tuberculosis; resuspended in 7H9 broth without gallium nitrate, BACTEC) of the same compound?
Its value is “bacteria did not grow”.

And the MNTC [1]?
The MNTC was at least 2 mM.

And the “colony-forming units from macrophage lysates, trend” value ([2]; between days 2 and 5 following gallium nitrate)?
The value was “continuous decrease in colony-forming units”.

What about the “killing of M. tuberculosis” value ([2]; colony forming unit assay, FIG. 5) of the same compound?
Its value is “M. tuberculosis were killed”.

What about the “colony-forming units relative to initial amount of bacteria in macrophages” value ([2]; day 5) of the same compound?
Its value is “only slightly below the initial amount of bacteria in macrophages”.

What about the “monolayer of treated infected macrophages” value ([2]; during assay, control-infected monolayers were lysed) of the same compound?
The value was “maintained a very good monolayer”.

And the inhibition of growth ([3]; 24 h)?
The inhibition of growth was “Inhibition of growth was observed”.

What about the inhibition of growth ([3]; about 1 to about 1000 μM) of the same compound?
Its inhibition of growth is “dose-dependent inhibition of growth”.

And the “inhibition of growth versus 24 h” value ([3]; text: 48 and 72 h, FIG. 2 legend: 24 and 48 h for Erdman)?
Its value is “More marked inhibition of growth”.

And the “growth inhibition of MAI” value [4]?
Its value is “inhibits the growth of MAI”.

And the “growth inhibition of MAI” value ([4]; listed as Gallium nitrate)?
The value was “significant inhibition of MAI growth”.
